# Laboratory results from patent US12077503B2, “Substituted cyclic amides and their use as herbicides” (FMC CORPORATION, priority 2015, dated 2024).
# Experiments:
# Format in all cases: in vivo
# rice (Oryza sativa) = assay: Test C flooded paddy test; conditions: Flood, 0 is no effect, 100 is complete control
# Method in brief: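 Rice, small-flower umbrella sedge, ducksalad and barnyardgrass at the 2-leaf stage were flooded to 3 cm, and compound was applied into the paddy water. After 13 to 15 d in a greenhouse, plants were rated visually against controls on a 0 (no effect) to 100 (complete control) scale.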
# [1] = test system: waterhemp (common waterhemp, Amaranthus rudis); assay: Test C preemergence; conditions: for Plant response rating, Waterhemp: scale 0 to 100, 0 no effect, 100 complete control
# Method in brief: (§1)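 Visual rating, 0–100 scale (0 = no effect, 100 = complete control) versus controls, 13–15 d after treatment. Compounds in non-phytotoxic solvent plus surfactant; applied preemergence to seeds in loam/sand soil or postemergence to 1- to 4-leaf plants (2–18 cm) in peat/vermiculite medium; greenhouse-held.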
# [2] = test system: blackgrass (Alopecurus myosuroides); assay: Test C preemergence; conditions: for Plant response rating, Blackgrass: scale 0 to 100, 0 no effect, 100 complete control
# Method in brief: as §1
# [3] = test system: nutsedge, yellow (yellow nutsedge, Cyperus esculentus); assay: Test C preemergence; conditions: for Plant response rating, Nutsedge, Yellow: scale 0 to 100, 0 no effect, 100 complete control
# Method in brief: as §1
# [4] = test system: johnsongrass (Sorghum halepense); assay: Test C preemergence; conditions: for Plant response rating, Johnsongrass: scale 0 to 100, 0 no effect, 100 complete control
# Method in brief: as §1
# [5] = test system: pigweed (Amaranthus retroflexus); assay: Test C preemergence; conditions: for Plant response rating, Pigweed: scale 0 to 100, 0 no effect, 100 complete control
# Method in brief: as §1
# [6] = test system: oilseed rape (Brassica napus); assay: Test C preemergence; conditions: for Plant response rating, Oilseed Rape: scale 0 to 100, 0 no effect, 100 complete control
# Method in brief: as §1
# corn (Zea mays) = assay: Test C preemergence; conditions: for Plant response rating, Corn: scale 0 to 100, 0 no effect, 100 complete control
# Method in brief: as §1
# [7] = test system: foxtail, giant (giant foxtail, Setaria faberii); assay: Test C preemergence; conditions: for Plant response rating, Foxtail, Giant: scale 0 to 100, 0 no effect, 100 complete control
# Method in brief: as §1
# soybean (Glycine max) = assay: Test C preemergence; conditions: for Plant response rating, Soybean: scale 0 to 100, 0 no effect, 100 complete control
# Method in brief: as §1
# [8] = test system: wheat (winter wheat, Triticum aestivum); assay: Test C preemergence; conditions: for Plant response rating, Wheat: scale 0 to 100, 0 no effect, 100 complete control
# Method in brief: as §1
# [9] = test system: morningglory (Ipomoea coccinea); assay: Test C preemergence; conditions: for Plant response rating, Morningglory: scale 0 to 100, 0 no effect, 100 complete control
# Method in brief: as §1
# [10] = test system: barnyardgrass (Echinochloa crus-galli); assay: Test C preemergence; conditions: for Plant response rating, Barnyardgrass: scale 0 to 100, 0 no effect, 100 complete control
# Method in brief: as §1
# [11] = test system: velvetleaf (Abutilon theophrasti); assay: Test C preemergence; conditions: for Plant response rating, Velvetleaf: scale 0 to 100, 0 no effect, 100 complete control
# Method in brief: as §1
# [12] = test system: ryegrass, Italian (Italian ryegrass, Lolium multiflorum); assay: Test C preemergence; conditions: for Plant response rating, Ryegrass, Italian: scale 0 to 100, 0 no effect, 100 complete control
# Method in brief: as §1
# [13] = test system: ragweed (common ragweed, Ambrosia elatior); assay: Test C preemergence; conditions: for Plant response rating, Ragweed: scale 0 to 100, 0 no effect, 100 complete control
# Method in brief: as §1
# [14] = test system: crabgrass, large (large crabgrass, Digitaria sanguinalis); assay: Test C preemergence; conditions: for Plant response rating, Crabgrass, Large: scale 0 to 100, 0 no effect, 100 complete control
# Method in brief: as §1
# [15] = test system: lambsquarters (Chenopodium album); assay: Test C preemergence; conditions: for Plant response rating, Lambsquarters: scale 0 to 100, 0 no effect, 100 complete control
# Method in brief: as §1
# [16] = test system: Galium (catchweed bedstraw, Galium aparine); assay: Test C preemergence; conditions: for Plant response rating, Galium: scale 0 to 100, 0 no effect, 100 complete control
# Method in brief: as §1
# [17] = 31 g ai/ha, 0 is no effect, 100 is complete control
smiles,measurement,setting,value
CN1CC(c2ccc(F)c(C(F)(F)F)c2)C(C(=O)Nc2ccccc2S(C)(=O)=O)C1=O (stereo not shown) [Compound 612],"Plant response rating (scale of 0 to 100), Rice",rice (Oryza sativa); 31 g ai/ha,0
same,"Plant response rating (scale of 0 to 100), Rice",rice (Oryza sativa); 62 g ai/ha,0
same,"Plant response rating (scale of 0 to 100), Rice",rice (Oryza sativa); 125 g ai/ha,0
same,"Plant response rating (scale of 0 to 100), Rice",rice (Oryza sativa); 250 g ai/ha,15
same,"Plant response rating (scale of 0 to 100), Waterhemp",[1]; [17],75
same,"Plant response rating, Waterhemp",[1]; 62 g ai/ha,85
same,"Plant response rating, Waterhemp",[1]; 125 g ai/ha,90
same,"Plant response rating, Waterhemp",[1]; 250 g ai/ha,95
same,"Plant response rating (scale of 0 to 100), Blackgrass",[2]; [17],70
same,"Plant response rating, Blackgrass",[2]; 62 g ai/ha,90
same,"Plant response rating, Blackgrass",[2]; 125 g ai/ha,90
same,"Plant response rating, Blackgrass",[2]; 250 g ai/ha,95
same,"Plant response rating (scale of 0 to 100), Nutsedge, Yellow",[3]; [17],0
same,"Plant response rating, Nutsedge, Yellow",[3]; 62 g ai/ha,0
same,"Plant response rating, Nutsedge, Yellow",[3]; 125 g ai/ha,25
same,"Plant response rating, Nutsedge, Yellow",[3]; 250 g ai/ha,35
same,"Plant response rating (scale of 0 to 100), Johnsongrass",[4]; [17],40
same,"Plant response rating, Johnsongrass",[4]; 62 g ai/ha,60
same,"Plant response rating, Johnsongrass",[4]; 125 g ai/ha,85
same,"Plant response rating, Johnsongrass",[4]; 250 g ai/ha,90
same,"Plant response rating (scale of 0 to 100), Pigweed",[5]; [17],60
same,"Plant response rating, Pigweed",[5]; 62 g ai/ha,80
same,"Plant response rating, Pigweed",[5]; 125 g ai/ha,90
same,"Plant response rating, Pigweed",[5]; 250 g ai/ha,90
same,"Plant response rating (scale of 0 to 100), Oilseed Rape",[6]; [17],30
same,"Plant response rating, Oilseed Rape",[6]; 62 g ai/ha,50
same,"Plant response rating, Oilseed Rape",[6]; 125 g ai/ha,70
same,"Plant response rating, Oilseed Rape",[6]; 250 g ai/ha,90
same,"Plant response rating (scale of 0 to 100), Corn",corn (Zea mays); [17],40
same,"Plant response rating, Corn",corn (Zea mays); 62 g ai/ha,30
same,"Plant response rating, Corn",corn (Zea mays); 125 g ai/ha,65
same,"Plant response rating, Corn",corn (Zea mays); 250 g ai/ha,70
same,"Plant response rating (scale of 0 to 100), Foxtail, Giant",[7]; [17],90
same,"Plant response rating, Foxtail, Giant",[7]; 62 g ai/ha,90
same,"Plant response rating, Foxtail, Giant",[7]; 125 g ai/ha,95
same,"Plant response rating, Foxtail, Giant",[7]; 250 g ai/ha,95
same,"Plant response rating (scale of 0 to 100), Soybean",soybean (Glycine max); [17],0
same,"Plant response rating, Soybean",soybean (Glycine max); 62 g ai/ha,0
same,"Plant response rating, Soybean",soybean (Glycine max); 125 g ai/ha,10
same,"Plant response rating, Soybean",soybean (Glycine max); 250 g ai/ha,0
same,"Plant response rating (scale of 0 to 100), Wheat",[8]; [17],20
same,"Plant response rating, Wheat",[8]; 62 g ai/ha,55
same,"Plant response rating, Wheat",[8]; 125 g ai/ha,25
same,"Plant response rating, Wheat",[8]; 250 g ai/ha,90
same,"Plant response rating (scale of 0 to 100), Morningglory",[9]; [17],0
same,"Plant response rating, Morningglory",[9]; 62 g ai/ha,0
same,"Plant response rating, Morningglory",[9]; 125 g ai/ha,25
same,"Plant response rating, Morningglory",[9]; 250 g ai/ha,55
same,"Plant response rating (scale of 0 to 100), Barnyardgrass",[10]; [17],85
same,"Plant response rating, Barnyardgrass",[10]; 62 g ai/ha,95
same,"Plant response rating, Barnyardgrass",[10]; 125 g ai/ha,95
same,"Plant response rating, Barnyardgrass",[10]; 250 g ai/ha,98
same,"Plant response rating (scale of 0 to 100), Velvetleaf",[11]; [17],0
same,"Plant response rating, Velvetleaf",[11]; 62 g ai/ha,10
same,"Plant response rating, Velvetleaf",[11]; 125 g ai/ha,30
same,"Plant response rating, Velvetleaf",[11]; 250 g ai/ha,60
same,"Plant response rating (scale of 0 to 100), Ryegrass, Italian",[12]; [17],20
same,"Plant response rating, Ryegrass, Italian",[12]; 62 g ai/ha,40
same,"Plant response rating, Ryegrass, Italian",[12]; 125 g ai/ha,50
same,"Plant response rating, Ryegrass, Italian",[12]; 250 g ai/ha,80
same,"Plant response rating (scale of 0 to 100), Ragweed",[13]; [17],10
same,"Plant response rating, Ragweed",[13]; 62 g ai/ha,10
same,"Plant response rating, Ragweed",[13]; 125 g ai/ha,55
same,"Plant response rating, Ragweed",[13]; 250 g ai/ha,65
same,"Plant response rating (scale of 0 to 100), Crabgrass, Large",[14]; [17],98
same,"Plant response rating, Crabgrass, Large",[14]; 62 g ai/ha,95
same,"Plant response rating, Crabgrass, Large",[14]; 125 g ai/ha,98
same,"Plant response rating, Crabgrass, Large",[14]; 250 g ai/ha,100
same,"Plant response rating (scale of 0 to 100), Lambsquarters",[15]; [17],45
same,"Plant response rating, Lambsquarters",[15]; 62 g ai/ha,45
same,"Plant response rating, Lambsquarters",[15]; 125 g ai/ha,40
same,"Plant response rating, Lambsquarters",[15]; 250 g ai/ha,70
same,"Plant response rating (scale of 0 to 100), Galium",[16]; [17],80
same,"Plant response rating, Galium",[16]; 62 g ai/ha,0
same,"Plant response rating, Galium",[16]; 125 g ai/ha,90
same,"Plant response rating, Galium",[16]; 250 g ai/ha,90
